Patent US7989451B2, “Tricyclic 1,2,4-triazine oxides and compositions for therapeutic use in cancer treatments” (Auckland Uniservices Limited, priority 2005, dated 2011)
Read-outs that look alike come from different tables or passages of the source.

Key:
[1] = tested on: SiHa, human cervical carcinoma; assay: Fractionated tumour excision assay, SiHa xenograft; type: in vivo, CD-1 nude mice; settings: for log cell kill compared to radiation alone: i.p. at 100% of MTD twice daily for 4 days, 30 min before each of 8×2.5 Gy, excised 18 hr after treatment
Experimental: (§1) FIG. 3 illustrates by way of a plot the activity of fractionated dose TPZ and compound 77 against hypoxic cells in three human tumour xenograft models: H460, non-small cell lung carcinoma; HT29, human colon carcinoma; SiHa, human cervical carcinoma. Drugs (1.0× fractionated MTD) were administered 30 min before each of 8×2.5 Gy doses of radiation.
(§2) The activity of multiple doses of compound 77 and TPZ against hypoxic cells in three human tumour xenografts is illustrated in FIG. 3. Subcutaneous tumours (average of two largest diameters 8-10 mm) were grown by inoculating 10^7 cells into the midline of the back in CD-1 nude mice. Drugs were administered by i.p. injection at 100% of the MTD for twice daily (9 am, 3 pm) administration for 4 days, either alone or 30 min before each of 8×2.5 Gy local irradiation of the tumour. Tumours were excised 18 hr after treatment and plated to determine the number of clonogens/g tumour tissue. Antitumour activity is measured as logs of cell kill in addition to the cell kill observed for radiation alone.

[2] = tested on: H460, non-small cell lung carcinoma; assay: Fractionated tumour excision assay, H460 xenograft; type: in vivo, CD-1 nude mice; settings: for log cell kill compared to radiation alone: i.p. at 100% of MTD twice daily for 4 days, 30 min before each of 8×2.5 Gy, excised 18 hr after treatment
Experimental: as §1, §2

[3] = tested on: HT29, human colon carcinoma; assay: Fractionated tumour excision assay, HT29 xenograft; type: in vivo, CD-1 nude mice; settings: for log cell kill compared to radiation alone: i.p. at 100% of MTD twice daily for 4 days, 30 min before each of 8×2.5 Gy, excised 18 hr after treatment
Experimental: as §1, §2

[4] = tested on: human cervical carcinoma SiHa; assay: Proliferation assay (IC50) under aerobic and hypoxic conditions, SiHa; type: cell-based; settings: for IC50: Homo sapiens, 4 h drug exposure, sulforhodamine B; for HCR: hypoxic cytotoxicity ratio = IC50 aerobic/IC50 hypoxic
Method in brief: (§3)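 HT29 (1100) and SiHa (1500) cells in αMEM with 17 mM glucose and 100 μM 2′-dCyd, exposed 4 h at 37 °C to 3-fold dilutions under 20% O2 or anoxia (<0.001% O2). Regrowth 5 (oxic) or 6 (anoxic) days; IC50 by sulforhodamine B. HCR = IC50 aerobic/IC50 hypoxic.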

[5] = tested on: human colon carcinoma HT29; assay: Proliferation assay (IC50) under aerobic and hypoxic conditions, HT29; type: cell-based; settings: for IC50: Homo sapiens, 4 h drug exposure, sulforhodamine B; for HCR: hypoxic cytotoxicity ratio = IC50 aerobic/IC50 hypoxic
Method in brief: as §3

[6] = tested on: hypoxic cells in HT29 tumours; assay: HT29 excision assay, single dose in combination with radiation; type: in vivo, CD-1 nude mice
Experimental: HT29 Excision assay. In vivo activity of single dose of compound 77 in combination with radiation. The activity of compound 77 against hypoxic cells in HT29 tumours is illustrated in FIG. 1. Subcutaneous HT29 tumours (average of two largest diameters 8-10 mm) were grown by inoculating 10^7 cells (obtained by enzymatic dissociation of multicellular spheroids) into CD-1 nude mice. Cmpd 77 was administered as a single i.p. dose (560 μmol/kg, which is 75% of the maximum tolerated dose) alone or 5 min after radiation (20 Gy). Tumours were excised 18 h after treatment and plated to determine the number of clonogens/g tumour tissue.

[7] = hypoxic (anaerobic chamber, <0.001% O2), then 6 days growth, read-out: IC50 (μM) hypoxic
[8] = oxic (20% O2), then 5 days growth, read-out: IC50 (μM) oxic
[9] = HT-29, hypoxic (anaerobic chamber, <0.001% O2), then 6 days growth, read-out: IC50 (μM) hypoxic
[10] = HT-29, oxic (20% O2), then 5 days growth, read-out: IC50 (μM) oxic
[11] = fractionated drug plus 8×2.5 Gy radiation

Row | IC50 [4, 7] [µM] | IC50 [4, 8] [µM] | IC50 [5, 9] [µM] | IC50 [5, 10] [µM] | melting point | SMILES | log cell kill compared to radiation alone ([1]; SiHa) | log cell kill compared to radiation alone [2] | log cell kill compared to radiation alone [3] | log cell kill in addition to radiation alone, 77 plus radiation relative to TPZ plus radiation ([1]; SiHa tumours, p<0.05, Student's t-test) | killing relative to TPZ ([1]; SiHa, fractionated drug plus 8×2.5 Gy radiation) | HCR [4] | HCR [5] | killing relative to TPZ [2, 11] | killing relative to TPZ [3, 11] | Hypoxic cytotoxicity: difference in clonogens/g tumour tissue between radiation-only and radiation+drug groups ([6]; single i.p. dose 560 μmol/kg (75% of MTD) 5 min after radiation (20 Gy), tumours excised 18 h after treatment, ANOVA and Dunnett's test) | Selectivity for hypoxic cells: activity with radiation versus as a single agent ([6]; single i.p. dose 560 μmol/kg alone or 5 min after radiation (20 Gy))
1 |  |  |  |  |  | Nc1n[n+]([O-])c2ccccc2[n+]1[O-] [TPZ, tirapazamine, reference compound] | significantly (P<0.05) greater log cell kill | significantly (P<0.05) greater log cell kill | significantly (P<0.05) greater log cell kill |  |  |  |  |  |  |  | 
2 | 1.8 ± 0.2 | 377 | 2.4 ± 0.1 | 294 ± 34 | 112 to 114 °C | [O-][n+]1nc(CCCN2CCOCC2)[n+]([O-])c2cc3c(cc21)CC(CO)C3 (stereo not drawn) [Compound 141, {3-[3-(4-Morpholinyl)propyl]-1,4-dioxido-7,8-dihydro-6H-indeno[5,6-e][1,2,4]triazin-7-yl}methanol] |  |  |  |  |  | 206 | 121 ± 14 |  |  |  | 
3 | 0.7 ± 0.3 | 105 ± 21 | 2.3 ± 0.6 | 318 ± 14 | 150 to 153 °C | CN(C)CCNc1n[n+]([O-])c2cc3c(cc2[n+]1[O-])CCC3 [Compound 23, N^1-(1,4-Dioxido-7,8-dihydro-6H-indeno[5,6-e][1,2,4]triazin-3-yl)-N^2,N^2-dimethyl-1,2-ethanediamine] |  |  |  |  |  | 111 ± 5 | 152 ± 35 |  |  |  | 
4 | 0.7 | 63 | 2.5 | 196 | 142 to 145 °C | CCCN(CCC)CCNc1n[n+]([O-])c2cc3c(cc2[n+]1[O-])CCC3 [Compound 29, N^1-(1,4-Dioxido-7,8-dihydro-6H-indeno[5,6-e][1,2,4]triazin-3-yl)-N^2,N^2-dipropyl-1,2-ethanediamine] |  |  |  |  |  | 91 | 77 |  |  |  | 
5 | 2.9 ± 0.4 | 283 | 7.7 ± 1.2 | 717 ± 320 | 152 to 155 °C | CCc1n[n+]([O-])c2cc3c(cc2[n+]1[O-])CC(CCO)C3 (stereo not drawn) [Compound 162, 2(3-Ethyl-1,4-dioxido-7,8-dihydro-6H-indeno[5,6-e][1,2,4]triazin-7-yl)ethanol] |  |  |  |  |  | 86 | 102 ± 57 |  |  |  | 
6 | 3.1 ± 0.1 | 18 ± 1 | 13 ± 1 | 24 ± 2 | 124 to 128 °C | CCc1n[n+]([O-])c2cc3c(cc2[n+]1[O-])CN(C)CC3 [Compound 261, 3-Ethyl-7-methyl-6,7,8,9-tetrahydro[1,2,4]triazino[6,5-g]isoquinoline 1,4-Dioxide] |  |  |  |  |  | 6 ± 0.2 | 2 ± 0.2 |  |  |  | 
7 | 1.8 ± 0.2 | 108 ± 8 | 3.4 ± 0.1 | 165 ± 10 | 152 °C (dec.) | COC1CN(CCNc2n[n+]([O-])c3cc4c(cc3[n+]2[O-])CCC4)C1 [Compound 35, N-[2-(3-Methoxy-1-azetidinyl)ethyl]-7,8-dihydro-6H-indeno[5,6-e][1,2,4]triazin-3-amine 1,4-Dioxide] |  |  |  |  |  | 61 ± 10 | 49 ± 5 |  |  |  | 

Row | SMILES | IC50 [4, 7] [µM] | IC50 [4, 8] [µM] | IC50 [5, 9] [µM] | IC50 [5, 10] [µM] | melting point | log cell kill compared to radiation alone ([1]; SiHa) | log cell kill compared to radiation alone [2] | log cell kill compared to radiation alone [3] | log cell kill in addition to radiation alone, 77 plus radiation relative to TPZ plus radiation ([1]; SiHa tumours, p<0.05, Student's t-test) | killing relative to TPZ ([1]; SiHa, fractionated drug plus 8×2.5 Gy radiation) | HCR [4] | HCR [5] | killing relative to TPZ [2, 11] | killing relative to TPZ [3, 11] | Hypoxic cytotoxicity: difference in clonogens/g tumour tissue between radiation-only and radiation+drug groups ([6]; single i.p. dose 560 μmol/kg (75% of MTD) 5 min after radiation (20 Gy), tumours excised 18 h after treatment, ANOVA and Dunnett's test) | Selectivity for hypoxic cells: activity with radiation versus as a single agent ([6]; single i.p. dose 560 μmol/kg alone or 5 min after radiation (20 Gy))
8 | [O-][n+]1nc(CCCN2CCOCC2)[n+]([O-])c2cc3c(cc21)CCC3 [Compound 77, 3-[3-(4-Morpholinyl)propyl]-7,8-dihydro-6H-indeno[5,6-e][1,2,4]triazine 1,4-Dioxide] | 1.4 ± 0.3 | 302 ± 48 | 2.8 ± 0.6 | 349 ± 62 |  | significantly (P<0.05) greater log cell kill | significantly (P<0.05) greater log cell kill | significantly (P<0.05) greater log cell kill | significantly greater | greater killing than TPZ | 223 ± 14 | 127 ± 12 | greater killing than TPZ | greater killing than TPZ | statistically significant (p<0.05) | greater activity of 77 with radiation than as a single agent
